# Measurements: US10842845B2, “Oxytocin improves treatment of obstructive sleep apnea” (THE GEORGE WASHINGTON UNIVERSITY, priority 2014, dated 2020)
# Entries after “also recorded” stand apart in the source; their conditions may differ.
# Assays:
# [1] = system: OXT receptors; test: Calcium imaging in OXT receptor-expressing CHO cells on brainstem slices upon photoactivation of ChR2-containing PVN fibers; format: cell-based, rat; conditions: from baseline during first second; CIH/H animals with daily injections of CNO (chronic OXT neuron activation); n=17; CIH/H alone 8.1±0.01%
# Description: Visualization of CHO cells expressing OXT receptors and the calcium indicator, as well as ChR2-containing PVN fibers, were performed on a confocal microscope system as previously described (Gamer and Buchel, 2012). To examine activation of OXT receptors upon optogenetic activation of ChR2-expressing PVN fibers in the DMV, CHO cells were pipetted onto the dorsal motor nucleus (DMV) of brain stem slices from animals previously injected with pLenti-Syn-hChR2(H134R)-EYFP-WPRE into the PVN, OXT-sensitive CHO cells within the boundaries of the DMV and in close apposition to ChR2-containing PVN fibers (7.5±0.5 μm) were used for experiments.
# 1-2 weeks after telemetry implantation, DREADDs receptors on PVN OXT neurons were activated daily by intraperitoneal (IP) injection of clozapine-n-oxide (CNO, 1.0 mg/kg). To investigate the effects of CNO on resting BP and HR in both DREADDs-expressing and sham animals, 3 days prior to CIH/H exposure (control days) baseline BP and HR values were recorded for a 20 min period before CNO injection. Animals from each group then received an IP injection of CNO, BP and HR were recorded for 1 hr, and the animals then underwent exposure to air for 8 hr to achieve acclimation to the chambers. […]
# [2] = molecular target: T1, DREADDs receptors on PVN OXT neurons (Homo sapiens, UniProt P20309, A239G/Y149C); test: Telemetry of resting blood pressure and heart rate before and after CNO injection; format: in vivo, Sprague-Dawley rats
# T1 construct: mCherry (C); host or cells: PVN oxytocin neurons of Sprague-Dawley rats, in vivo, transduced with AAV2-hSyn-DIO-hM3D(Gq)-mCherry and rAAV1-OXT-Cre
# T1 sequence (P20309 whole entry Y149C/A239G, the tested form may be a part): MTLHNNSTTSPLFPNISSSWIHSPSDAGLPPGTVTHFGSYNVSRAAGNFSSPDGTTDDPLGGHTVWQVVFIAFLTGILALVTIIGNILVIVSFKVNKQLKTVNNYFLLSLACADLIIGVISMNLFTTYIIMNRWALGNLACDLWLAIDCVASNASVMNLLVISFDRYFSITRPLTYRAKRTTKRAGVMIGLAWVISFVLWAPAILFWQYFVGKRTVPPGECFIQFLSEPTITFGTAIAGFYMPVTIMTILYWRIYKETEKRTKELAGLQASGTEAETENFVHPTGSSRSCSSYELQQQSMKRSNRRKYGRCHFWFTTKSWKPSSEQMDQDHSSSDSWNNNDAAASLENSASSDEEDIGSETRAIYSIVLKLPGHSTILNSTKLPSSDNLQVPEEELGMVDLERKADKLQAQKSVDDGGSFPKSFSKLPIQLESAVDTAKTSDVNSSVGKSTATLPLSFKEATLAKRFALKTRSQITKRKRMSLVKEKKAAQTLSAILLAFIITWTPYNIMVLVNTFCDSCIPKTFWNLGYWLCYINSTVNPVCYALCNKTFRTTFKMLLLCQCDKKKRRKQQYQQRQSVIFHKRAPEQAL
# From the text: To record blood pressure and heart rate, male Sprague-Dawley rats, 3-4 weeks of age, were anesthetized using isoflurane (2-4%) and a HD-XII pressure transmitter was implanted (Data Sciences International, St Paul, Minn., USA) with its cathether inserted into the abdominal aorta to record pressure and EKG leads were attached subcutaneously to obtain EKG recordings and heart rate. All rats with telemetry devices were allowed 7-14 days to recover from transmitter implantation surgery before any measurements were recorded. Blood pressure and heart rate were recorded via radio-frequency signals obtained through the Ponemah data acquisition system (Data Sciences International). Baseline recordings of blood pressure and heart rate were obtained for 3 days prior to CIH/H exposure. Prior to, and during, the 28 day CIH/H exposure period daily baseline recordings of blood pressure and heart rate were recorded.
# 1-2 weeks after telemetry implantation, DREADDs receptors on PVN OXT neurons were activated daily by intraperitoneal (IP) injection of clozapine-n-oxide (CNO, 1.0 mg/kg). To investigate the effects of CNO on resting BP and HR in both DREADDs-expressing and sham animals, 3 days prior to CIH/H exposure (control days) baseline BP and HR values were recorded for a 20 min period before CNO injection. Animals from each group then received an IP injection of CNO, BP and HR were recorded for 1 hr, and the animals then underwent exposure to air for 8 hr to achieve acclimation to the chambers. During the 21 days of CIH/H exposure, baseline recordings of BP and HR were obtained before CNO injection, recorded for 1 hr post CNO injection, and for the entire duration of OHM exposure.
# To examine the effects of CNO on and the chronic changes to mean arterial blood pressure (MAP) over the 21 days of OHM exposure, values were recorded before and after CNO injection on control days prior to CIH exposures, and days 1, 3, 6, 9, 12, 15, 18, and 21 of CIH/H. Changes within the DREADDs-expressing animals and the sham animals were statistically analyzed by one-way ANOVA with repeated-measures followed by Bonferroni's multiple comparison test. To examine the statistical changes in MAP between the two groups of animals, a two-way ANOVA with repeated-measures followed by Bonferroni's multiple comparison test was used. Data with p<0.05 were considered significant.
# CNO administration had no effect on BP represented as mean arterial pressure (MAP) and HR in sham animals without DREADDs expression (FIGS. 10A and 10B). However, CNO administration that activates DREADDs receptors in PVN OXT neurons decreased resting HR and BP throughout 21 days of CIH/H exposure, with significant decreases in MAP (104±2.6 mmHg before CNO to 93±1.7 mmHg after CNO; n=8; ^+p<0.0001; paired t test; FIG. 10A) and HR (416±7.1 beats/min before CNO to 362±10.5 beats/min after CNO; n=8; ^+p<0.01; paired t test; FIG. 10B).
compound,measurement,setting,value
"C[N+]1([O-])CCN(C2=Nc3cc(Cl)ccc3Nc3ccccc32)CC1 [CNO, clozapine-n-oxide]",average increase in intracellular calcium in OXT-sensitive CHO cells upon photostimulation of ChR2-containing PVN fibers in the DMV,[1],23.4±0.03%
same,change in HR after CNO injection (in words),"[2]; DREADDs-expressing animals, 45 min after CNO injection, n=8",significantly decreased
same,MAP after CNO,"[2]; DREADDs-expressing animals, CNO 1.0 mg/kg IP, 104±2.6 mmHg before CNO, n=8",93±1.7 mmHg
same,HR after CNO,"[2]; DREADDs-expressing animals, CNO 1.0 mg/kg IP, 416±7.1 beats/min before CNO, n=8",362±10.5 beats/min
same,change in resting MAP after CNO injection (in words),"[2]; oxytocin neuron activated (DREADDs-expressing) animals, 45 min after CNO injection, n=8",significantly decreased
same,effect of CNO on HR in sham animals without DREADDs expression (in words),"[2]; sham animals, n=7",no effect; also recorded: did not significantly change
same,effect of CNO on MAP in sham animals without DREADDs expression (in words),"[2]; sham animals, n=7",no effect; also recorded: did not significantly change
